Where two headings read alike, the source gives them in different places.
Tests used:
Assay type in all cases: cell-based
CXCR2 = molecular target: T1, CXCR2 (Homo sapiens, UniProt P25025); test: CXCR2 antagonistic activity assay (IL-8-induced intracellular calcium change, Fluo-4 AM, HEK293 cells stably expressing Gα16 and CXCR2); conditions: for CXCR2 antagonistic activity (in words): HEK293 cells expressing Gα16 and CXCR2
T1 construct: expressed in transfected cells; host or cells: HEK293 cells stably expressing Gα16 and CXCR2
T1 sequence (P25025 1-360): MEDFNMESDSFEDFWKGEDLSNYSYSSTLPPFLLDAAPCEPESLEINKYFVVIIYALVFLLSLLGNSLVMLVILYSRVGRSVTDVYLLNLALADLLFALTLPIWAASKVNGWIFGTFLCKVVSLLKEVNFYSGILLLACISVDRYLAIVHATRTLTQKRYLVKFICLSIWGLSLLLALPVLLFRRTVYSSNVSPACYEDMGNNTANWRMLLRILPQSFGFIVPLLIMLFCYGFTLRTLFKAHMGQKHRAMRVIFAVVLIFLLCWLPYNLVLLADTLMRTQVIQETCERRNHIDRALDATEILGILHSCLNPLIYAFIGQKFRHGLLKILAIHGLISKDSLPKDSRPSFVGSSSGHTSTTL
Description: Human embryonic kidney 293 (HEK293) cells stably expressing Gα16 and CXCR2 were seeded onto 96-well plates and incubated for 24 h. Cells were loaded with 2 µmol l^−1 Fluo-4 AM in Hank's balanced salt solution (HBSS, containing KCl 5.4 mmol l^−1, Na2HPO4 0.3 mmol l^−1, KH2PO4 0.4 mmol l^−1, NaHCO3 4.2 mmol l^−1, CaCl2 1.3 mmol l^−1, MgCl2 0.5 mmol l^−1, Mg2SO4 0.6 mmol l^−1, NaCl 137 mmol l^−1, BSA 5 g l^−1, glucose 5.6 mmol l^−1 and sulfinpyrazone 250 µmol l^−1, pH 7.4) at 37°C for 45 min. The excess dye was removed and 50 µl of HBSS containing test compounds was added. After incubation at room temperature for 10 min, 25 µl of HBSS containing IL-8 was dispensed into the well using a FlexStation II microplate reader (Molecular Devices, Sunnyvale, CA, USA), and intracellular calcium change was recorded with an excitation wavelength of 485 nm and an emission wavelength of 525 nm. The half maximal inhibitory concentrations (IC50) of compounds were determined with the […] PRISM software by constructing their dose–response curves.

NCI-H1299 cells [1] = test: Anti-proliferation assay (MTT); conditions: NCI-H1299, 0.1, 1, 10 and 100 µg ml^−1, 72 h
Description: NCI-H1299 cells (provided by Tumor Pharmacology and Endocrine Laboratory, College of Pharmaceutical Sciences, Zhe Jiang University) were seeded in 96-well plates at a density of 4000 cells well^−1. After 24 h of adherence, cells were incubated with medium alone or medium containing test compounds for 72 h. Four different concentrations (100, 10, 1 and 0.1 µg ml^−1) of both antagonists were used. Cell proliferation was determined by the thiazolyl blue tetrazolium bromide (MTT) assay. Growth inhibition was calculated as % = [1 − (A/B)] × 100, where A and B were the absorbance of treated and untreated cells, respectively.
The highly metastatic NCI-H1299 lung cancer cell line was selected for the following in vitro biological evaluation.

NCI-H1299 cells [2] = test: Wound healing assay (cell migration); conditions: Homo sapiens; NCI-H1299, 50 µg ml^−1, 48 h treatment; read-out: cell migration inhibitory rate
Description: NCI-H1299 cells (5 × 10^5 cell well^−1) were seeded in a six-well tissue culture plate and grown to 90% confluence. After the medium was removed, a gap with constant width was created in the centre of the cell well by scratching the monolayer with a sterile yellow micropipette tip. […] The wound closure was monitored and photographed at 0, 12, 24, 36 and 48 h with the IMAGEPRO software. The cell migration inhibitory rate was calculated as % = [1 − (0 h wound area − 12, 24, 36 or 48 h wound area)/0 h wound area] × 100.
The wound area was calculated with the IMAGEPRO software.

[3] = HEK293 cells expressing Gα16 and CXCR2, IL-8 stimulated calcium change, read-out: CXCR2 IC50

Row | SMILES | IC50 (CXCR2; [3]) | other results
1 | N#Cc1ccc(Nc2nnc(-c3ccc(C(F)(F)F)cc3)[nH]2)c(O)c1 [Compound 1d, 3-hydroxy-4-((5-(4-(trifluoromethyl)phenyl)-4H-1,2,4-triazol-3-yl)amino)benzonitrile] | > 100 µM | –
2 | CN(C)C(=O)c1cccc(Nc2nn(Cc3ccccc3)c(=O)[nH]2)c1O [Compound 3, 3-((1-benzyl-5-oxo-4,5-dihydro-1H-1,2,4-triazol-3-yl)amino)-2-hydroxy-N,N-dimethylbenzamide] | > 100 µM | CXCR2 antagonistic activity (in words) (CXCR2): loss of CXCR2 antagonistic activity
3 | CC(C)S(=O)(=O)c1c(Cl)ccc(Nc2nnc(-c3ccccc3)[nH]2)c1O [Compound 1e, 3-chloro-2-(isopropylsulfonyl)-6-((5-phenyl-4H-1,2,4-triazol-3-yl)amino)phenol] | – | IC50 (CXCR2): 14.8 µM; cytotoxicity (growth inhibition, MTT) (NCI-H1299 cells [1]): no cytotoxicity; inhibition at 50 µg/mL (NCI-H1299 cells [2]): 72%
4 | CN(C)C(=O)c1cccc(Nc2nccc(Nc3ccccc3)n2)c1O [Compound 2, 2-hydroxy-N,N-dimethyl-3-((4-(phenylamino)pyrimidin-2-yl)amino)benzamide] | > 100 µM | CXCR2 antagonistic activity (in words) (CXCR2): loss of CXCR2 antagonistic activity

Further molecules by falling IC50 (CXCR2; [3]), results first:

Row | IC50 (CXCR2; [3]) | SMILES | other results
5 | 76 µM | CN(C)C(=O)c1cccc(Nc2nnc(-c3ccccc3)[nH]2)c1O [Compound 1a, 2-hydroxy-N,N-dimethyl-3-((5-phenyl-4H-1,2,4-triazol-3-yl)amino)benzamide] | –
6 | 25.4 µM | N#Cc1ccc(Nc2nnc(-c3ccccc3Br)[nH]2)c(O)c1 [Compound 1c, 4-((5-(2-bromophenyl)-4H-1,2,4-triazol-3-yl)amino)-3-hydroxybenzonitrile] | –
7 | 18.5 µM | N#Cc1ccc(Nc2nnc(-c3ccccc3)[nH]2)c(O)c1 [Compound 1b, 3-hydroxy-4-((5-phenyl-4H-1,2,4-triazol-3-yl)amino)benzonitrile] | –

Reference: publication PMC6083693, “Ligand-based pharmacophore model for the discovery of novel CXCR2 antagonists as anti-cancer metastatic agents” (Royal Society Open Science, 2018)
